Earlier results on one compound are cited in US20180071205A1, “Stable Vitamin C System” (priority 2014, published 2018).

For data set [1] the following is noted: normal water-based preparation.
The conditions of data set [2]: aqueous solutions; accelerated by alkalines, iron and copper; sodium salt at pH >6.

For `O=C1O[C@H]([C@@H](O)CO)C(O)=C1O` [L-ascorbic acid], the pH entry in data set [1] is “around 2”. Besides, the “stability to oxidation by air” value in data set [2] was “rapidly oxidized by air”.
